From patent US20090247404A1, “METHOD FOR IMPROVING HARVESTABILITY OF CROPS” (priority 2006, published 2009) come the findings set out here.

The structures appear in SMILES notation.

Common to all, as to type: in vivo
Experiment [1] deals with cotton (GOSHI, Gossypium hirsutum L.). As to the kind of experiment: Test A: field trial, preharvest application of harvest aids alone and with Compound 4 to cotton (cv. Fibermax FM 989 RR). The conditions noted are these: for Boll Opening (%) / Desiccation (%) / State of Defoliation (%): 841 g a.i./ha. The protocol:
A field trial was conducted to evaluate the effects of mixtures of Compound 4 with commercial harvest aids on cotton (GOSHI, Gossypium hirsutum L.). Cotton seeds (cv. ‘Fibermax FM 989 RR’) were planted in mid spring season, 3.8 cm deep in a clay soil having 1.8% organic matter and a pH of 6.8. Plots were 9 m long by 3 m wide with rows spaced 96.5 cm apart. Seeds were spaced 10.2 cm apart within the rows. The field was managed using conventional tillage practices, and applications of herbicides and insecticides were used to maintain a healthy crop. The plots were arranged in a randomized complete block design with each treatment being replicated three times. Treatments were applied preharvest over the top of the crop in late summer, when approximately 65% of the bolls had opened, using a backpack sprayer delivering a spray volume of 140 L/ha using a pressure of 276 kPa. Treatments consisted of the commercial harvest aids tribufos and ethephon+AMADS alone and in combination with Compound 4, dissolved or suspended in water. The effects on the treated plants and untreated controls were recorded 4, 11 and 21 days after application. Plants were visually evaluated for harvest aid effects of boll opening, defoliation, desiccation, and whole plant (basal and terminal) regrowth inhibition. Results were calculated as the mean of the three replicates, based on a scale of 0 to 100 where 0 is no effect and 100 is complete expression of the effect.
(§1) Results for Tests A, B1 and B2 are given in Table A, B1 and B2 respectively. Plants were visually evaluated for harvest aid effects of boll opening, defoliation, desiccation, and whole plant (basal and terminal) regrowth inhibition. “State of Defoliation (%)” represents a visual rating at a given DAA of the overall reduction in foliage on treated plants in a plot. It is based on a scale of 0 to 100%, where 0 represents an amount of foliage similar to control plants, and 100 indicates no leaves present. Plant regrowth assessments at a given DAA were made relative to appropriate controls after effects of defoliation were observed. Regrowth of the basal (“plant stalk”, below the top 15.3 cm of the plants) and terminal (“plant terminal”, top 15.3 cm of the plants) portions of the plants were separately evaluated on a visual rating scale of 0 to 100%, where 0 indicates no regrowth, and 100 indicates complete regrowth. The regrowth evaluations involved overall assessment of renewed or continued growth and development, which included: node and internodal development and elongation, and leaf formation, development and growth. These regrowth evaluations were recorded as “Regrowth %” and subsequently converted in the tables to “Regrowth Inhibition (%)”, which was calculated as 100%−YT, where YT equals the mean Regrowth % of three replicates for a respective treatment.

Experiment [2] shares this test system. As to the kind of experiment: Test B1: field trial, preharvest application of harvest aids alone and with Compound 4 to cotton (cv. DP 434). To be noted: for inhibition at 5 g/ha / inhibition at 10 g/ha / inhibition at 20 g/ha / inhibition at 1262 g/ha / inhibition at 421 g/ha: Gossypium hirsutum. As for the experimental part: A field trial was conducted to evaluate the effects of mixtures of Compound 4 with commercial harvest aids on cotton (GOSHI, Gossypium hirsutum L.). Delta and Pine Land Co. cotton seeds (cv. ‘DP 434’) were planted in mid spring season, 3.8-cm deep in a fine-texture loam soil comprising 40% sand, 36% silt, and 24% clay. Soil organic matter was 1.8%; pH was 6.6. Plots were 9.1 m long by 3.0 m wide with rows spaced 96.5 cm apart. Seeds were spaced 10.2 cm apart within the rows. The field was managed using conventional tillage practices, and applications of herbicides and insecticides were used to maintain a healthy crop. The plots were arranged in a randomized complete block design with each treatment being replicated four times. Treatments were applied preharvest over the top of the crop in late summer, when approximately 65% of the bolls had opened, using a tractor-mounted sprayer delivering a spray volume of 140 L/ha at a pressure of 241 kPa. Treatments consisted of the commercial harvest aids tribufos, ethephon, and ethephon+AMADS alone and in combination with Compound 4, dissolved or suspended in water. Plants were evaluated for harvest aid effects including defoliation and regrowth inhibition at 4, 7, 14, and/or 22 days after application (DAA). Individual results were recorded and data reported as the means of the three replicates.
as §1

Experiment [3] has the same test system. As to the kind of experiment: Test B2: field trial, preharvest application of harvest aids alone and with Compound 4 to cotton (cv. DP 117BRIIRF). To be noted: for inhibition at 5 g/ha / inhibition at 10 g/ha / inhibition at 20 g/ha / inhibition at 1262 g/ha / inhibition at 421 g/ha: Gossypium hirsutum, 336 h. The protocol: A field trial was conducted to evaluate the effects of mixtures of Compound 4 with commercial harvest aids on cotton (GOSHI, Gossypium hirsutum L.). Delta and Pine Land Co. cotton seeds (cv. ‘DP 117BRIIRF’) were planted in mid spring season, 2.0-cm deep in a clay soil. Plots were 12.19 m long by 3.86 m wide with rows spaced 96.5 cm apart. The field was managed using conventional tillage practices, and applications of herbicides and insecticides were used to maintain a healthy crop. The plots were arranged in a randomized complete block design with each treatment being replicated four times. Treatments were applied preharvest over the top of the crop in late summer, when approximately 65% of the bolls had opened, using a tractor-mounted sprayer delivering a spray volume of 140.3 L/ha at a pressure of 193 kPa. Treatments consisted of the commercial harvest aids tribufos, ethephon, and ethephon+AMADS alone and in combination with Compound 4, dissolved or suspended in water. Plants were evaluated for harvest aid effects including defoliation and regrowth inhibition at 4, 7, and 14 DAA. Individual results were recorded and data reported as the means of the three replicates.
as §1

Setting [4] is: treatments including Compound 4.
Setting [5] is: plant terminal and plant stalk, 14 DAA.

Regarding `COC(=O)c1nc(C2CC2)nc(N)c1Cl` [Compound 4, methyl 6-amino-5-chloro-2-cyclopropyl-4-pyrimidinecarboxylate], the “desiccation, combination with Compound 4 compared to ethephon+AMADS or tribufos alone” value in experiment [1] (11 days after application) is recorded as “increased”. Besides, in experiment [1] (21 days after application), the “defoliation, combination with Compound 4 compared to ethephon+AMADS or tribufos alone” value is “dramatically increased”. Also, the “regrowth inhibition, combination with Compound 4 compared to ethephon+AMADS or tribufos alone” value in experiment [1] (21 days after application) was “dramatically increased”. Besides, in experiment [1] (compared to the untreated plants), the “boll opening effects of the commercial harvest aids in combination with Compound 4” value is given as “did not interfere”. In addition, the “inhibition of basal and terminal regrowth” value in experiment [1] (setting [4]) was “effective for inhibiting both basal and terminal regrowth”; in experiment [2] (setting [4]) it was “effective for inhibiting both basal and terminal regrowth”; in experiment [3] (setting [4]), “effective for inhibiting both basal and terminal regrowth”. Moreover, the “State of Defoliation (%)” value in experiment [2] (5 g a.i./ha, 4 DAA) was found to be 13%; in experiment [2] (5 g a.i./ha, 7 DAA), 18%; in experiment [2] (5 g a.i./ha, 14 DAA), 23%; in experiment [2] (10 g a.i./ha, 4 DAA), 8%; in experiment [2] (10 g a.i./ha, 7 DAA), 18%; in experiment [2] (10 g a.i./ha, 14 DAA) it was 21%. For the same compound, the “State of Defoliation (%)” value in experiment [2] (20 g a.i./ha, 4 DAA) is on record as 13%; in experiment [2] (20 g a.i./ha, 7 DAA), 24%; in experiment [2] (20 g a.i./ha, 14 DAA) it was 23%; in experiment [3] (5 g a.i./ha, 4 DAA), 3%; in experiment [3] (5 g a.i./ha, 7 DAA) it was 4%; in experiment [3] (5 g a.i./ha, 14 DAA), 10%. Moreover, the “State of Defoliation (%)” value in experiment [3] (10 g a.i./ha, 4 DAA) was 3%; in experiment [3] (10 g a.i./ha, 7 DAA), 4%; in experiment [3] (10 g a.i./ha, 14 DAA), 11%; in experiment [3] (20 g a.i./ha, 4 DAA), 4%; in experiment [3] (20 g a.i./ha, 7 DAA), 9%; in experiment [3] (20 g a.i./ha, 14 DAA), 15%. Moreover, the inhibition at 5 g/ha in experiment [2] (336 h, 5 g a.i./ha, 14 DAA, read-out: Plant Stalk (Below 15.3-cm) Regrowth Inhibition (%)) was found to be 100%; in experiment [2] (336 h, 5 g a.i./ha, 14 DAA, read-out: Plant Terminal (Top 15.3-cm) Regrowth Inhibition (%)) it was 100%; in experiment [2] (528 h, 5 g a.i./ha, 22 DAA, read-out: Plant Stalk (Below 15.3-cm) Regrowth Inhibition (%)), 100%; in experiment [3] (5 g a.i./ha, 14 DAA, read-out: Plant Stalk (Below 15.3-cm) Regrowth Inhibition (%)), 100%; in experiment [3] (5 g a.i./ha, 14 DAA, read-out: Plant Terminal (Top 15.3-cm) Regrowth Inhibition (%)) it was 97%. Also, the inhibition at 10 g/ha in experiment [2] (336 h, 10 g a.i./ha, 14 DAA, read-out: Plant Stalk (Below 15.3-cm) Regrowth Inhibition (%)) was 100%; in experiment [2] (336 h, 10 g a.i./ha, 14 DAA, read-out: Plant Terminal (Top 15.3-cm) Regrowth Inhibition (%)), 100%; in experiment [2] (528 h, 10 g a.i./ha, 22 DAA, read-out: Plant Stalk (Below 15.3-cm) Regrowth Inhibition (%)), 100%; in experiment [3] (10 g a.i./ha, 14 DAA, read-out: Plant Stalk (Below 15.3-cm) Regrowth Inhibition (%)), 100%; in experiment [3] (10 g a.i./ha, 14 DAA, read-out: Plant Terminal (Top 15.3-cm) Regrowth Inhibition (%)), 100%. The inhibition at 20 g/ha in experiment [2] (336 h, 20 g a.i./ha, 14 DAA, read-out: Plant Stalk (Below 15.3-cm) Regrowth Inhibition (%)) is 100%; in experiment [2] (336 h, 20 g a.i./ha, 14 DAA, read-out: Plant Terminal (Top 15.3-cm) Regrowth Inhibition (%)) it was 100%; in experiment [2] (528 h, 20 g a.i./ha, 22 DAA, read-out: Plant Stalk (Below 15.3-cm) Regrowth Inhibition (%)), 100%; in experiment [3] (20 g a.i./ha, 14 DAA, read-out: Plant Stalk (Below 15.3-cm) Regrowth Inhibition (%)) it was 100%; in experiment [3] (20 g a.i./ha, 14 DAA, read-out: Plant Terminal (Top 15.3-cm) Regrowth Inhibition (%)), 100%. Also, the “regrowth inhibition, addition of Compound 4 compared to ethephon, ethephon+AMADS or tribufos alone” value in experiment [2] (setting [5]) and in experiment [3] (setting [5]) was “dramatically increased” in each case.
In the case of `O=P(O)(O)CCCl` [Ethephon, reference compound], the “State of Defoliation (%)” value was 54% in experiment [2] (1262 g a.i./ha, 4 DAA); 73% in experiment [2] (1262 g a.i./ha, 7 DAA); 79% in experiment [2] (1262 g a.i./ha, 14 DAA); 58% in experiment [3] (1262 g a.i./ha, 4 DAA); 63% in experiment [3] (1262 g a.i./ha, 7 DAA); 48% in experiment [3] (1262 g a.i./ha, 14 DAA). Also, the inhibition at 1262 g/ha in experiment [2] (336 h, 1262 g a.i./ha, 14 DAA, read-out: Plant Stalk (Below 15.3-cm) Regrowth Inhibition (%)) was 90%; in experiment [2] (336 h, 1262 g a.i./ha, 14 DAA, read-out: Plant Terminal (Top 15.3-cm) Regrowth Inhibition (%)), 75%; in experiment [2] (528 h, 1262 g a.i./ha, 22 DAA, read-out: Plant Stalk (Below 15.3-cm) Regrowth Inhibition (%)) it was 22%; in experiment [3] (1262 g a.i./ha, 14 DAA, read-out: Plant Stalk (Below 15.3-cm) Regrowth Inhibition (%)), 80%; in experiment [3] (1262 g a.i./ha, 14 DAA, read-out: Plant Terminal (Top 15.3-cm) Regrowth Inhibition (%)), 60%.
In the case of `CCCCSP(=O)(SCCCC)SCCCC` [Tribufos, S,S,S-tributylphosphorotrithioate, reference compound], the “Boll Opening (%)” value was determined as 70% in experiment [1] (4 DAA) and 78% in experiment [1] (11 DAA). For the same compound, the results for the “Desiccation (%)” value in experiment [1] (4 DAA) and in experiment [1] (11 DAA) were 32% and 8%, respectively. Further, the “State of Defoliation (%)” value in experiment [1] (4 DAA) amounted to 68%; in experiment [1] (11 DAA) it was 80%; in experiment [1] (21 DAA) it was 35%; in experiment [2] (421 g a.i./ha, 4 DAA) it was 49%; in experiment [2] (421 g a.i./ha, 7 DAA), 76%; in experiment [2] (421 g a.i./ha, 14 DAA), 81%. Besides, the “State of Defoliation (%)” value came out at 50% in experiment [3] (421 g a.i./ha, 4 DAA); 56% in experiment [3] (421 g a.i./ha, 7 DAA); 53% in experiment [3] (421 g a.i./ha, 14 DAA). In experiment [1] (Gossypium hirsutum, 504 h, read-out: Regrowth Inhibition (%)), the inhibition at 841 g/ha was 25%. The inhibition at 421 g/ha in experiment [2] (336 h, read-out: Plant Stalk (Below 15.3-cm) Regrowth Inhibition (%)) was determined as 84%; in experiment [2] (336 h, read-out: Plant Terminal (Top 15.3-cm) Regrowth Inhibition (%)), 47%; in experiment [2] (528 h, read-out: Plant Stalk (Below 15.3-cm) Regrowth Inhibition (%)), 29%; in experiment [3] (read-out: Plant Stalk (Below 15.3-cm) Regrowth Inhibition (%)), 81%; in experiment [3] (read-out: Plant Terminal (Top 15.3-cm) Regrowth Inhibition (%)), 44%.

As a reminder, the inhibition is the percentage by which the read-out fell short of the control.
